In patent US20240409542A1, “NOVEL COMPOUNDS” (Sitryx Therapeutics Limited, priority 2021, published 2024):
In brackets after ≈: the same amount, converted by molar mass.

Tests used:
recombinant human PKM2 = recombinant human PKM2 (Homo sapiens (Human), UniProt P14618); experiment: Human PKM2 activation assay (Kinase-Glo Plus luminescence); format: biochemical; conditions: for EC50: activation of recombinant human PKM2, 4-parameter logistic fit, read-out: hPKM2 EC50; for Emax: read-out: hPKM2 Emax (%)
Method: Compound activation of recombinant human PKM2 pyruvate kinase activity was determined by biochemical assay. N-terminal His-tagged hPKM2 was sourced from R&D Systems and its substrates phosphoenolpyruvate (PEP) and ADP from Sigma-Aldrich and 2BScientific Ltd, respectively. The Kinase-Glo® Plus luminescence assay was from Promega. All other reagents were from Sigma-Aldrich. Test Compounds were prepared as 10 mM DMSO stocks and dilution series prepared in DMSO for direct dilution into Assay Buffer comprising 50 mM imidazole, 50 mM KCl, 7 mM MgCl2, 0.01% Tween20, 0.05% BSA (pH 7.2).
Human PKM2 was diluted into Assay Buffer comprising 50 mM imidazole, 50 mM KCl, 7 mM MgCl2, 0.01% Tween20, 0.05% BSA (pH 7.2) to a final concentration of 5 pM. Enzyme-Assay Buffer mix was dispensed into a 384-well shallow-well white-walled plate (PerkinElmer) and Test Compounds added by acoustic dispense (Echo®, Labcyte Inc.).
After 60 minutes' incubation on an orbital shaker (300 rpm, 26° C.), enzyme activity was quantified by the luminescent detection of generated ATP. Kinase-Glo® Plus reagent was added to each well and the plates incubated for a further 15 minutes on an orbital shaker in the dark (300 rpm, 26° C.) before luminescence measurement on a plate reader (PHERAstar® FSX, BMG Labtech).
EC50 and Emax values were determined from 4-parameter logistic fits of compound concentration-response curves.

[1] = Kinetic aqueous solubility; conditions: kinetic from dmso stock, Kinetic solubility (Ksol), (μg/ml), PBS pH 7.4, 200 μM (2% DMSO), RT
Method: Phosphate buffered saline (PBS) pH 7.4 was prepared using PBS tablets as per the manufacturer's instructions. Compounds and marker stocks are prepared at 10 mM in DMSO.
Compounds were incubated at 200 μM (2% DMSO) in Millipore—MSS LB PC 10 or Porvair—ref: 36004 plates in the presence of the prepared PBS pH 7.4 solution for 1.5 h, at RT, with gentle shaking. […] The samples were then analysed in a 96 well UV Star analysis plate on a plate reader from 220 nm to 500 nm at 10 nm increments.
The concentration of the samples was calculated against the standard curves.

[2] = phosphate buffered saline (PBS) pH 7.4, pH 7.4, aqueous buffer

Sequence of recombinant human PKM2 (P14618 whole entry): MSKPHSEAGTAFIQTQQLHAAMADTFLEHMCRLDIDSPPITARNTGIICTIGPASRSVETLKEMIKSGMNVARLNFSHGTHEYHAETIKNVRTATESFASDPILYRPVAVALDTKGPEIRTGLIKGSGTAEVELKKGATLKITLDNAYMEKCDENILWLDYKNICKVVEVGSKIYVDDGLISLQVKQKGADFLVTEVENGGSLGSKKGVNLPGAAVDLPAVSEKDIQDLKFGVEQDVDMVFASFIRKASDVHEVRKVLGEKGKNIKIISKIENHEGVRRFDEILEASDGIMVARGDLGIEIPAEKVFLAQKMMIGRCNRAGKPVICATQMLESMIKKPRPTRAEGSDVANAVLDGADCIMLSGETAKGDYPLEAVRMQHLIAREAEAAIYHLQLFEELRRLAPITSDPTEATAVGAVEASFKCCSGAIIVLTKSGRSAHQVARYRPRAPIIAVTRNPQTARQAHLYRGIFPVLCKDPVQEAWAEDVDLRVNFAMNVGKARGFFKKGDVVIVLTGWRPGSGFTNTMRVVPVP

SMILES	EC50 (recombinant human PKM2) [µM]	Emax (recombinant human PKM2) [%]	solubility kinetic at 1.5 h [1, 2] [mg/mL]	solubility kinetic at 1.5 h ([1]; phosphate buffered saline, pH 7.4, aqueous buffer) [mg/mL]
Cn1c2c(c3cnn(Cc4cccc(N5CCCC5)n4)c(=O)c31)CCN(S(C)(=O)=O)C2 [Example 19, 5-methyl-7-(methylsulfonyl)-3-((6-(pyrrolidin-1-yl)pyridin-2-yl)methyl)-3,5,6,7,8,9-hexahydro-4H-pyrido[4′,3′:4,5]pyrrolo[2,3-d]pyridazin-4-one]	0.869	63.8	0.00542 (≈ 12.2 µM)	–
Cn1c2c(c3cnn(Cc4n[nH]c5ccccc45)c(=O)c31)CCN(S(C)(=O)=O)C2 [Example 20, 3-((1H-indazol-3-yl)methyl)-5-methyl-7-(methylsulfonyl)-3,5,6,7,8,9-hexahydro-4H-pyrido[4′,3′:4,5]pyrrolo[2,3-d]pyridazin-4-one]	0.272	111	0.00843 (≈ 20.4 µM)	–
COc1ccc(Cn2ncc3c4c(n(C)c3c2=O)CN(S(=O)(=O)c2ccccc2)CC4)c(F)c1 [Example 21, 3-(2-fluoro-4-methoxybenzyl)-5-methyl-7-(phenylsulfonyl)-3,5,6,7,8,9-hexahydro-4H-pyrido[4′,3′:4,5]pyrrolo[2,3-d]pyridazin-4-one]	0.986	71.4	0.00104 (≈ 2.16 µM)	–
COc1ccc(S(=O)(=O)N2CCc3c(n(C)c4c(=O)n(Cc5ccc6c(c5)CCO6)ncc34)C2)cc1 [Example 23, 3-((2,3-dihydrobenzofuran-5-yl)methyl)-7-((4-methoxyphenyl)sulfonyl)-5-methyl-3,5,6,7,8,9-hexahydro-4H-pyrido[4′,3′:4,5]pyrrolo[2,3-d]pyridazin-4-one]	0.313	58.3	–	–
Cn1c2c(c3cnn(Cc4ccc5c(c4)CC(C)(C)O5)c(=O)c31)CCN(S(C)(=O)=O)C2 [Example 24, 3-((2,2-dimethyl-2,3-dihydrobenzofuran-5-yl)methyl)-5-methyl-7-(methylsulfonyl)-3,5,6,7,8,9-hexahydro-4H-pyrido[4′,3′:4,5]pyrrolo[2,3-d]pyridazin-4-one]	0.188	90.9	–	–
Cn1c2c(c3cnn(Cc4ccc5cc[nH]c5n4)c(=O)c31)CCN(S(C)(=O)=O)C2 [Example 25, 3-((1H-pyrrolo[2,3-b]pyridin-6-yl)methyl)-5-methyl-7-(methylsulfonyl)-3,5,6,7,8,9-hexahydro-4H-pyrido[4′,3′:4,5]pyrrolo[2,3-d]pyridazin-4-one]	0.342	99.5	0.00394 (≈ 9.55 µM)	–
COCCS(=O)(=O)N1CCc2c(n(C)c3c(=O)n(Cc4ccc(OC)nc4)ncc23)C1 [Example 27, 7-((2-methoxyethyl)sulfonyl)-3-((6-methoxypyridin-3-yl)methyl)-5-methyl-3,5,6,7,8,9-hexahydro-4H-pyrido[4′,3′:4,5]pyrrolo[2,3-d]pyridazin-4-one]	0.919	78	–	–
COCCNS(=O)(=O)N1CCc2c(n(C)c3c(=O)n(Cc4ccc(OC)nc4)ncc23)C1 [Example 28, N-(2-methoxyethyl)-3-((6-methoxypyridin-3-yl)methyl)-5-methyl-4-oxo-3,4,5,6,8,9-hexahydro-7H-pyrido[4′,3′:4,5]pyrrolo[2,3-d]pyridazine-7-sulfonamide]	0.385	56.4	> 0.0925	–
COCCS(=O)(=O)N1CCc2c(n(C)c3c(=O)n(Cc4c[nH]c5cnccc45)ncc23)C1 [Example 29, 3-((1H-pyrrolo[2,3-c]pyridin-3-yl)methyl)-7-((2-methoxyethyl)sulfonyl)-5-methyl-6,7,8,9-tetrahydro-3H-pyrido[4′,3′:4,5]pyrrolo[2,3-d]pyridazin-4(5H)-one]	0.28	89	–	0.0375 (≈ 82 µM)
Cn1c2c(c3cnn(Cc4cccc(S(C)(=O)=O)c4)c(=O)c31)CCN(S(C)(=O)=O)C2 [Example 31, 5-methyl-7-(methylsulfonyl)-3-(3-(methylsulfonyl)benzyl)-3,5,6,7,8,9-hexahydro-4H-pyrido[4′,3′:4,5]pyrrolo[2,3-d]pyridazin-4-one]	0.423	75.3	0.0188 (≈ 41.8 µM)	–
Cn1c2c(c3cnn(Cc4cccc(C(C)(C)O)c4)c(=O)c31)CCN(S(C)(=O)=O)C2 [Example 33, 3-(3-(2-hydroxypropan-2-yl)benzyl)-5-methyl-7-(methylsulfonyl)-3,5,6,7,8,9-hexahydro-4H-pyrido[4′,3′:4,5]pyrrolo[2,3-d]pyridazin-4-one]	–	96.5	0.0198 (≈ 46 µM)	–
COc1ccc(S(=O)(=O)N2CCc3c(n(C)c4c(=O)n(Cc5c[nH]c6cnccc56)ncc34)C2)cc1 [Example 35, 3-((1H-pyrrolo[2,3-c]pyridin-3-yl)methyl)-7-((4-methoxyphenyl)sulfonyl)-5-methyl-3,5,6,7,8,9-hexahydro-4H-pyrido[4′,3′:4,5]pyrrolo[2,3-d]pyridazin-4-one]	0.569	78.1	–	–
Cn1c2c(c3cnn(Cc4c[nH]c5ccc(F)cc45)c(=O)c31)CCN(S(C)(=O)=O)C2 [Example 38, 3-((5-fluoro-1H-indol-3-yl)methyl)-5-methyl-7-(methylsulfonyl)-6,7,8,9-tetrahydro-3H-pyrido[4′,3′:4,5]pyrrolo[2,3-d]pyridazin-4(5H)-one]	0.759	93.2	–	–

Further lines, results first:

EC50 (recombinant human PKM2) [µM]	Emax (recombinant human PKM2) [%]	solubility kinetic at 1.5 h [1, 2] [mg/mL]	solubility kinetic at 1.5 h ([1]; phosphate buffered saline, pH 7.4, aqueous buffer) [mg/mL]	SMILES
0.702	88.5	0.038 (≈ 92.9 µM)	–	Cn1c2c(c3cnn(Cc4ccsc4CO)c(=O)c31)CCN(S(C)(=O)=O)C2 [Example 13, 3-((2-(hydroxymethyl)thiophen-3-yl)methyl)-5-methyl-7-(methylsulfonyl)-3,5,6,7,8,9-hexahydro-4H-pyrido[4′,3′:4,5]pyrrolo[2,3-d]pyridazin-4-one]
0.512	102	0.0413 (≈ 98.1 µM)	–	Cn1c2c(c3cnn(Cc4ccsc4C(N)=O)c(=O)c31)CCN(S(C)(=O)=O)C2 [Example 14, 3-((5-methyl-7-(methylsulfonyl)-4-oxo-4,5,6,7,8,9-hexahydro-3H-pyrido [4′,3′:4,5]pyrrolo[2,3-d]pyridazin-3-yl)methyl)thiophene-2-carboxamide]
0.099	99.9	0.00249 (≈ 6.05 µM)	–	Cn1c2c(c3cnn(Cc4c[nH]c5ccccc45)c(=O)c31)CCN(S(C)(=O)=O)C2 [Example 15, 3-((1H-indol-3-yl)methyl)-5-methyl-7-(methylsulfonyl)-3,5,6,7,8,9-hexahydro-4H-pyrido[4′,3′:4,5]pyrrolo[2,3-d]pyridazin-4-one]
0.129	76.6	0.00758 (≈ 18.4 µM)	–	Cn1c2c(c3cnn(Cc4coc5ccccc45)c(=O)c31)CCN(S(C)(=O)=O)C2 [Example 16, 3-(benzofuran-3-ylmethyl)-5-methyl-7-(methylsulfonyl)-3,5,6,7,8,9-hexahydro-4H-pyrido[4′,3′:4,5]pyrrolo[2,3-d]pyridazin-4-one]
0.901	98.8	0.0731 (≈ 180 µM)	–	Cn1c2c(c3cnn(Cc4n[nH]cc4C(N)=O)c(=O)c31)CCN(S(C)(=O)=O)C2 [Example 17, 3-((5-methyl-7-(methylsulfonyl)-4-oxo-4,5,6,7,8,9-hexahydro-3H-pyrido [4′,3′:4,5]pyrrolo[2,3-d]pyridazin-3-yl)methyl)-1H-pyrazole-4-carboxamide]
0.394	58.7	0.0183 (≈ 40.5 µM)	–	Cn1c2c(c3cnn(Cc4cccc(S(N)(=O)=O)c4)c(=O)c31)CCN(S(C)(=O)=O)C2 [Example 18, 3-((5-methyl-7-(methylsulfonyl)-4-oxo-4,5,6,7,8,9-hexahydro-3H-pyrido [4′,3′:4,5]pyrrolo[2,3-d]pyridazin-3-yl)methyl)benzenesulfonamide]
0.385	76.8	0.00253 (≈ 4.93 µM)	–	COc1ccc(S(=O)(=O)N2CCc3c(n(C)c4c(=O)n(Cc5ccsc5C(N)=O)ncc34)C2)cc1 [Example 22, 3-((7-((4-methoxyphenyl)sulfonyl)-5-methyl-4-oxo-4,5,6,7,8,9-hexahydro-3H-pyrido[4′,3′:4,5]pyrrolo[2,3-d]pyridazin-3-yl)methyl)thiophene-2-carboxamide]
0.372	81.1	> 0.083	–	C[C@H](N)c1cccc(Cn2ncc3c4c(n(C)c3c2=O)CN(S(C)(=O)=O)CC4)c1 [Example 26, (S)-3-(3-(1-aminoethyl)benzyl)-5-methyl-7-(methylsulfonyl)-3,5,6,7,8,9-hexahydro-4H-pyrido[4′,3′:4,5]pyrrolo[2,3-d]pyridazin-4-one]
0.365	94.6	0.0162 (≈ 39.2 µM)	–	Cn1c2c(c3cnn(Cc4cccc5[nH]ncc45)c(=O)c31)CCN(S(C)(=O)=O)C2 [Example 32, 3-((1H-indazol-4-yl)methyl)-5-methyl-7-(methylsulfonyl)-3,5,6,7,8,9-hexahydro-4H-pyrido[4′,3′:4,5]pyrrolo[2,3-d]pyridazin-4-one]
